From ChEMBL document CHEMBL3885861, “Open TG-GATES”

Organism: Rattus norvegicus
Assay: Open TG-GATES - Regimen: Single
Type: toxicity, organism-based, Sprague-Dawley
Set-up: regimen Single, gender Male, age 6 weeks
Settings: in vivo, po, 200 mg/kg, route gavage, dose level High; for APTT / Bas / Eos / Fbg / Hb / Ht / Lym / MCH / MCHC / MCV / Mono / Neu / PT / Plat / RBC / Ret / WBC: tissue Blood; for KIDNEY_L / KIDNEY_R / KIDNEY_TOTAL: tissue Kidney; for LIVER: tissue Liver; for A/G / ALP / ALT / AST / BUN / CRE / Ca / Cl / DBIL / GLC / IP / K / LDH / Na / PL / RALB / TBIL / TC / TG / TP / gamma-GTP: tissue Plasma

CC(CN1c2ccccc2Sc2ccccc21)N(C)C (configuration not stated) [PROMETHAZINE]
TERMINAL_BW (3 h): 219.2 g
APTT (3 h): 23.5 s
Bas (3 h): 0%
Eos (3 h): 0.8%
Fbg (3 h): 315.2 mg/dL
Hb (3 h): 13.5 g/dL
Ht (3 h): 40.9%
Lym (3 h): 78.4%
MCH (3 h): 21 pg
MCHC (3 h): 32.9%
MCV (3 h): 63.9 fL
Mono (3 h): 3%
Neu (3 h): 17%
PT (3 h): 16.4 s
Plat (3 h): 126.9 x10_4/uL
RBC (3 h): 640.8 x10_4/ul
Ret (3 h): 7.8%
WBC (3 h): 66.9 x10_2/uL
KIDNEY_L (3 h): 0.9 g
KIDNEY_R (3 h): 1 g
KIDNEY_TOTAL (3 h): 1.9 g
LIVER (3 h): 9.7 g
A/G (3 h): 1.3
ALP (3 h): 1534.6 IU/L
ALT (3 h): 59 IU/L
AST (3 h): 90.2 IU/L
BUN (3 h): 11.8 mg/dL
CRE (3 h): 0.1 mg/dL
Ca (3 h): 10.8 mg/dL
Cl (3 h): 105.4 meq/L
DBIL (3 h): 0.036 mg/dL
GLC (3 h): 181 mg/dL
IP (3 h): 10.1 mg/dL
K (3 h): 4.3 meq/L
LDH (3 h): 211.8 IU/L
Na (3 h): 141.6 meq/L
PL (3 h): 135.4 mg/dL
RALB (3 h): 3.2 g/dL
TBIL (3 h): 0.024 mg/dL
TC (3 h): 77.2 mg/dL
TG (3 h): 47.4 mg/dL
TP (3 h): 5.6 g/dL
gamma-GTP (3 h): 1.2 IU/L
TERMINAL_BW (6 h): 215.1 g
APTT (6 h): 24 s
Bas (6 h): 0%
Eos (6 h): 0.4%
Fbg (6 h): 348.2 mg/dL
Hb (6 h): 13.5 g/dL
Ht (6 h): 40.8%
Lym (6 h): 72.4%
MCH (6 h): 20.7 pg
MCHC (6 h): 33.1%
MCV (6 h): 62.7 fL
Mono (6 h): 2.6%
Neu (6 h): 23.4%
PT (6 h): 16.5 s
Plat (6 h): 123.7 x10_4/uL
RBC (6 h): 650.4 x10_4/ul
Ret (6 h): 7.5%
WBC (6 h): 56.6 x10_2/uL
KIDNEY_L (6 h): 0.9 g
KIDNEY_R (6 h): 0.9 g
KIDNEY_TOTAL (6 h): 1.9 g
LIVER (6 h): 9.1 g
A/G (6 h): 1.2
ALP (6 h): 1235.6 IU/L
ALT (6 h): 44.8 IU/L
AST (6 h): 77.8 IU/L
BUN (6 h): 9.8 mg/dL
CRE (6 h): 0.2 mg/dL
Ca (6 h): 10.7 mg/dL
Cl (6 h): 106.4 meq/L
DBIL (6 h): 0.018 mg/dL
GLC (6 h): 184.8 mg/dL
IP (6 h): 9.4 mg/dL
K (6 h): 4.4 meq/L
LDH (6 h): 237.2 IU/L
Na (6 h): 141 meq/L
PL (6 h): 130.2 mg/dL
RALB (6 h): 3.1 g/dL
TBIL (6 h): 0.016 mg/dL
TC (6 h): 76 mg/dL
TG (6 h): 42 mg/dL
TP (6 h): 5.7 g/dL
gamma-GTP (6 h): 1.4 IU/L
TERMINAL_BW (9 h): 208.1 g
APTT (9 h): 24 s
Bas (9 h): 0%
Eos (9 h): 0.6%
Fbg (9 h): 316.4 mg/dL
Hb (9 h): 13.6 g/dL
Ht (9 h): 41.5%
Lym (9 h): 76%
MCH (9 h): 20.4 pg
MCHC (9 h): 32.9%
MCV (9 h): 62.2 fL
Mono (9 h): 2.2%
Neu (9 h): 20.8%
PT (9 h): 16.4 s
Plat (9 h): 129.1 x10_4/uL
RBC (9 h): 667.2 x10_4/ul
Ret (9 h): 7.4%
WBC (9 h): 67.2 x10_2/uL
KIDNEY_L (9 h): 0.9 g
KIDNEY_R (9 h): 0.9 g
KIDNEY_TOTAL (9 h): 1.8 g
LIVER (9 h): 8.4 g
A/G (9 h): 1.2
ALP (9 h): 1643.2 IU/L
ALT (9 h): 39.6 IU/L
AST (9 h): 69.2 IU/L
BUN (9 h): 10 mg/dL
CRE (9 h): 0.2 mg/dL
Ca (9 h): 10.5 mg/dL
Cl (9 h): 106.2 meq/L
DBIL (9 h): 0.026 mg/dL
GLC (9 h): 187 mg/dL
IP (9 h): 9.1 mg/dL
K (9 h): 4.2 meq/L
LDH (9 h): 178.8 IU/L
Na (9 h): 141 meq/L
PL (9 h): 133.6 mg/dL
RALB (9 h): 3.1 g/dL
TBIL (9 h): 0.016 mg/dL
TC (9 h): 75.6 mg/dL
TG (9 h): 43 mg/dL
TP (9 h): 5.6 g/dL
gamma-GTP (9 h): 1 IU/L
TERMINAL_BW (24 h): 209.6 g
APTT (24 h): 22.3 s
Bas (24 h): 0%
Eos (24 h): 0.8%
Fbg (24 h): 311.2 mg/dL
Hb (24 h): 13.7 g/dL
Ht (24 h): 41.5%
Lym (24 h): 77.8%
MCH (24 h): 20.1 pg
MCHC (24 h): 33%
MCV (24 h): 60.8 fL
Mono (24 h): 2.4%
Neu (24 h): 19%
PT (24 h): 16.8 s
Plat (24 h): 138.5 x10_4/uL
RBC (24 h): 684.4 x10_4/ul
Ret (24 h): 6.4%
WBC (24 h): 71.5 x10_2/uL
KIDNEY_L (24 h): 0.9 g
KIDNEY_R (24 h): 0.9 g
KIDNEY_TOTAL (24 h): 1.9 g
LIVER (24 h): 8.6 g
A/G (24 h): 1.3
ALP (24 h): 1472.4 IU/L
ALT (24 h): 40.8 IU/L
AST (24 h): 68 IU/L
BUN (24 h): 14.6 mg/dL
CRE (24 h): 0.2 mg/dL
Ca (24 h): 10.7 mg/dL
Cl (24 h): 107.6 meq/L
DBIL (24 h): 0.018 mg/dL
GLC (24 h): 185.2 mg/dL
IP (24 h): 8.3 mg/dL
K (24 h): 4.2 meq/L
LDH (24 h): 190 IU/L
Na (24 h): 142.4 meq/L
PL (24 h): 139 mg/dL
RALB (24 h): 3.1 g/dL
TBIL (24 h): 0.018 mg/dL
TC (24 h): 79.4 mg/dL
TG (24 h): 43.4 mg/dL
TP (24 h): 5.6 g/dL
gamma-GTP (24 h): 1 IU/L
